In ChEMBL document CHEMBL1201862, “PubChem BioAssay data set” (2004):
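How tested: cells in 96-well plates exposed to compound for 48 hours at five concentrations. GI50 is the concentration that inhibits growth by half.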 Calls of active or inactive are those of the source. No stated cut-off is given here; in the data, active = GI50 up to about 1.1 µM and inactive = higher.

Columns and labels:
Test in all cases: NCI anticancer screen, dose series, 48 h
KM-20L2 = system: KM-20L2
DMS-114 = system: DMS-114
LXFL 529 = system: LXFL 529
DLD-1 = system: DLD-1
DMS-273 = system: DMS-273
XF498 = system: XF498
SNB-78 = system: SNB-78
HOP-18 = system: HOP-18
RXF 631 = system: RXF 631

SMILES | GI50 (KM-20L2) | GI50 (DMS-114) | GI50 (LXFL 529) | GI50 (DLD-1) | GI50 (DMS-273) | GI50 (XF498) | GI50 (SNB-78) | GI50 (HOP-18) | GI50 (RXF 631)
O=C1c2ccccc2C(=O)c2c1oc1cc(O)c(Cl)cc21 | 2.67 µM (inactive) | 2.23 µM (inactive) | 20.5 µM (inactive) | 6.22 µM (inactive) | 2.41 µM (inactive) | 7.41 µM (inactive) | 5.69 µM (inactive) | 1.73 µM (inactive) | –
CCOC(=O)/C(Br)=C1/OC(=O)c2ccccc2-c2ccccc21.CCOC(=O)/C(Br)=C1\OC(=O)c2ccccc2-c2ccccc21 | – | 15.4 µM (inactive) | 13.6 µM (inactive) | 17.9 µM (inactive) | 14.7 µM (inactive) | 18.5 µM (inactive) | 20.6 µM (inactive) | 22 µM (inactive) | 21.9 µM (inactive)
CN(C)C(=O)OC(Cn1cncn1)c1ccc(Cl)cc1Cl (stereo unspecified) | > 100 µM (inactive) | > 100 µM (inactive) | > 100 µM (inactive) | > 100 µM (inactive) | > 100 µM (inactive) | – | > 100 µM (inactive) | > 100 µM (inactive) | –
CC(C)/C=C1\CCC(CN2CCOCC2)C1=O (stereo unspecified) | 20.1 µM (inactive) | – | 2.74 µM (inactive) | 2.69 µM (inactive) | – | 18.3 µM (inactive) | 12.5 µM (inactive) | 17.7 µM (inactive) | –
COc1ccc(/C=C2\CN(C)Cc3c2nc(N)nc3-c2ccc(OC)cc2)cc1 | 82 µM (inactive) | 65.3 µM (inactive) | 49.5 µM (inactive) | 57 µM (inactive) | > 100 µM (inactive) | 35 µM (inactive) | > 100 µM (inactive) | – | –
CCCCCCCCCCCCCC(=S)N/C=C/OC | 40.1 µM (inactive) | 21.7 µM (inactive) | 38.3 µM (inactive) | 33.4 µM (inactive) | – | 24.3 µM (inactive) | 48 µM (inactive) | 35.8 µM (inactive) | –
CN(C)CCCNc1c2ccccc2nc2cccc([N+](=O)[O-])c12 | 0.01 µM (active) | 0.0132 µM (active) | – | – | 0.01 µM (active) | 0.01 µM (active) | 0.0117 µM (active) | – | –
NC1N=Nc2ccccc21 (stereo unspecified) | > 100 µM (inactive) | > 100 µM (inactive) | > 100 µM (inactive) | > 100 µM (inactive) | > 100 µM (inactive) | > 100 µM (inactive) | – | – | > 100 µM (inactive)
COC1OC(C)C(OC(=O)C(C)(C)C)C(OS(=O)(=O)c2ccc(C)cc2)C1OS(=O)(=O)c1ccc(C)cc1 (stereo unspecified) | > 100 µM (inactive) | > 100 µM (inactive) | > 100 µM (inactive) | > 100 µM (inactive) | > 100 µM (inactive) | – | > 100 µM (inactive) | > 100 µM (inactive) | –
CCCCNC(=NC#N)NCCCC | > 100 µM (inactive) | 55.6 µM (inactive) | > 100 µM (inactive) | > 100 µM (inactive) | > 100 µM (inactive) | > 100 µM (inactive) | > 100 µM (inactive) | > 100 µM (inactive) | > 100 µM (inactive)
COc1ccc(Br)c2c1CC(C(=O)O)CC2 (stereo unspecified) | > 100 µM (inactive) | > 100 µM (inactive) | > 100 µM (inactive) | > 100 µM (inactive) | > 100 µM (inactive) | > 100 µM (inactive) | > 100 µM (inactive) | > 100 µM (inactive) | –
O=S(=O)(c1ccccc1)C1CN2OC1(S(=O)(=O)c1ccccc1)CC2c1ccc(Br)cc1 (stereo unspecified) | > 100 µM (inactive) | > 100 µM (inactive) | – | > 100 µM (inactive) | > 100 µM (inactive) | 18.6 µM (inactive) | – | – | 26.5 µM (inactive)
CN(CC(=O)O)S(=O)(=O)c1ccc(Cl)cc1 | > 100 µM (inactive) | – | > 100 µM (inactive) | > 100 µM (inactive) | > 100 µM (inactive) | > 100 µM (inactive) | – | > 100 µM (inactive) | –
COc1ccc2c(c1OC)C(=O)C2 | > 100 µM (inactive) | > 100 µM (inactive) | > 100 µM (inactive) | – | > 100 µM (inactive) | > 100 µM (inactive) | – | > 100 µM (inactive) | –
N#CCCN(c1ccc(/C=N/c2ccccc2)cc1)S(=O)(=O)c1ccccc1 | – | > 100 µM (inactive) | 4.44 µM (inactive) | > 100 µM (inactive) | > 100 µM (inactive) | 0.834 µM (active) | > 100 µM (inactive) | – | –
CC(=O)N/N=C1\CC(C)(C)C2CCC1C2 (stereo unspecified) | – | > 100 µM (inactive) | > 100 µM (inactive) | – | > 100 µM (inactive) | > 100 µM (inactive) | > 100 µM (inactive) | – | –
COC1(C)CC2N(C(=O)c3ccccc3)N=C(c3ccccc3)CC2(C)O1 (stereo unspecified) | > 100 µM (inactive) | > 100 µM (inactive) | > 100 µM (inactive) | 44.5 µM (inactive) | – | > 100 µM (inactive) | – | – | > 100 µM (inactive)
CCOC(=O)/N=C(\N)SCc1ccccc1 | > 100 µM (inactive) | > 100 µM (inactive) | > 100 µM (inactive) | > 100 µM (inactive) | > 100 µM (inactive) | > 100 µM (inactive) | > 100 µM (inactive) | > 100 µM (inactive) | > 100 µM (inactive)
O=C1C(Cl)C(c2ccc(O)cc2)N1n1cnc2ccccc2c1=O (stereo unspecified) | 58.9 µM (inactive) | 28.2 µM (inactive) | 16.7 µM (inactive) | 19.1 µM (inactive) | 39.8 µM (inactive) | 33.5 µM (inactive) | 49 µM (inactive) | 49.4 µM (inactive) | –
CC(=O)OC1COC(N2C(=O)C(=O)c3c(C)cc(Cl)nc32)C(OC(C)=O)C1OC(C)=O (stereo unspecified) | > 100 µM (inactive) | > 100 µM (inactive) | > 100 µM (inactive) | > 100 µM (inactive) | > 100 µM (inactive) | > 100 µM (inactive) | > 100 µM (inactive) | > 100 µM (inactive) | –
Cc1nn(-c2nc3ccccc3s2)c2c1C(=O)c1ccccc1-2 | > 100 µM (inactive) | > 100 µM (inactive) | 74.8 µM (inactive) | > 100 µM (inactive) | > 100 µM (inactive) | – | > 100 µM (inactive) | > 100 µM (inactive) | –
C[Si](C)(C)c1ccc(CC2(Cc3ccc([Si](C)(C)C)cc3)CCNC2)cc1 | 1.9 µM (inactive) | 2.13 µM (inactive) | 2.18 µM (inactive) | 2.51 µM (inactive) | 1.94 µM (inactive) | – | 3.13 µM (inactive) | 2.77 µM (inactive) | 2.32 µM (inactive)
COC1/C=C/O[C@@]2(C)Oc3c(C)c(O)c4c(O)c(cc(O)c4c3C2=O)NC(=O)/C(C)=C\C=C\[C@H](C)C(O)[C@@H](C)[C@@H](O)[C@@H](C)[C@H](OC(C)=O)[C@@H]1C (stereo partly specified) | 13.3 µM (inactive) | 7.91 µM (inactive) | – | 10.1 µM (inactive) | 17.9 µM (inactive) | 14.8 µM (inactive) | 32.8 µM (inactive) | 17.7 µM (inactive) | –
O=C(/C=N/c1ccccc1[S-])c1ccco1.O=C(/C=N/c1ccccc1[S-])c1ccco1.[Zn+2] | 15.3 µM (inactive) | 21.2 µM (inactive) | 10 µM (inactive) | 4.44 µM (inactive) | – | – | 16.8 µM (inactive) | – | 17 µM (inactive)
COc1ccc(C2Oc3ccc(O)cc3[C@@H]2C)cc1OC (stereo partly specified) | > 100 µM (inactive) | 59.8 µM (inactive) | 71 µM (inactive) | > 100 µM (inactive) | > 100 µM (inactive) | > 100 µM (inactive) | > 100 µM (inactive) | > 100 µM (inactive) | –
NC(=O)N1N=C2c3ccccc3CC[C@@H]2C1c1ccccc1 (stereo partly specified) | > 100 µM (inactive) | 77.1 µM (inactive) | > 100 µM (inactive) | > 100 µM (inactive) | > 100 µM (inactive) | – | > 100 µM (inactive) | – | –
COc1ccc(/C=C/c2cc(OC)c(O[Si](C)(C)C(C)(C)C)c(OC)c2)cc1 | > 100 µM (inactive) | 14 µM (inactive) | > 100 µM (inactive) | > 100 µM (inactive) | 67 µM (inactive) | > 100 µM (inactive) | – | – | 73.1 µM (inactive)
CCCC1(CC(=O)O)OCCc2c1[nH]c1ccccc21 (stereo unspecified) [PRODOLIC ACID] | > 100 µM (inactive) | > 100 µM (inactive) | > 100 µM (inactive) | > 100 µM (inactive) | > 100 µM (inactive) | > 100 µM (inactive) | > 100 µM (inactive) | > 100 µM (inactive) | –
